Assay results from PubChem BioAssay (NCI).
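Five concentrations, 48 hours, 96-well plates. TGI: total growth inhibition.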

Key:
Test in all cases: NCI-60 cell line screen, 48 h
EKVX NSCLC = system: EKVX NSCLC
TK-10 renal = system: TK-10 renal
SF-295 CNS = system: SF-295 CNS
SW-620 colon = system: SW-620 colon
MOLT-4 leukemia = system: MOLT-4 leukemia
SK-MEL-28 melanoma = system: SK-MEL-28 melanoma
OVCAR-3 ovarian = system: OVCAR-3 ovarian
NCI-H226 lung = system: NCI-H226 lung
HCT-116 colon = system: HCT-116 colon
HT29 colon = system: HT29 colon
SF-539 CNS = system: SF-539 CNS

SMILES | TGI (EKVX NSCLC) | TGI (TK-10 renal) | TGI (SF-295 CNS) | TGI (SW-620 colon) | TGI (MOLT-4 leukemia) | TGI (SK-MEL-28 melanoma) | TGI (OVCAR-3 ovarian) | TGI (NCI-H226 lung) | TGI (HCT-116 colon) | TGI (HT29 colon) | TGI (SF-539 CNS)
O=C(CC(O)(C(F)(F)F)C(F)(F)F)C(CCCl)C(O)(C(F)(F)F)C(F)(F)F (centres undefined) | > 100 µM | > 100 µM | > 100 µM | > 100 µM | > 100 µM | > 100 µM | 65.3 µM | > 100 µM | > 100 µM | 91.5 µM | > 100 µM
Cc1cc2ccccc2c[n+]1CC(O)C[n+]1cc2ccccc2cc1C | > 100 µM | > 100 µM | > 100 µM | > 100 µM | > 100 µM | > 100 µM | > 100 µM | > 100 µM | > 100 µM | > 100 µM | > 100 µM
O=C(O)C(CCc1ccccn1)c1ccccc1 (centres undefined) | > 100 µM | > 100 µM | > 100 µM | > 100 µM | > 100 µM | > 100 µM | > 100 µM | > 100 µM | > 100 µM | > 100 µM | > 100 µM
O=C1NC(=S)N/C1=C/c1ccccc1O | > 100 µM | > 100 µM | > 100 µM | > 100 µM | > 100 µM | > 100 µM | > 100 µM | > 100 µM | > 100 µM | > 100 µM | > 100 µM
CN1CCn2c(Br)ccc2C1=O | > 100 µM | > 100 µM | > 100 µM | > 100 µM | > 100 µM | > 100 µM | > 100 µM | > 100 µM | > 100 µM | > 100 µM | > 100 µM
Nc1nc(Cl)cc(N=Nc2ccccc2)n1 | > 100 µM | > 100 µM | > 100 µM | > 100 µM | > 100 µM | > 100 µM | 30.3 µM | > 100 µM | 32.2 µM | > 100 µM | > 100 µM
CC1=C(C(=O)OCCc2ccc([N+](=O)[O-])cc2)C(c2ccccc2[N+](=O)[O-])C(C(=O)OC(C)C)=C(C)N1 (centres undefined) | 39.2 µM | > 100 µM | > 100 µM | > 100 µM | 9.93 µM | > 100 µM | > 100 µM | 65.3 µM | > 100 µM | > 100 µM | > 100 µM
COC(=O)C(/C(=N/NC(=O)c1ccncc1)C(=O)Nc1ccccc1OC)c1nc2ccc(Cl)cc2[nH]c1=O (centres undefined) | > 100 µM | > 100 µM | > 100 µM | > 100 µM | > 100 µM | > 100 µM | > 100 µM | > 100 µM | > 100 µM | > 100 µM | > 100 µM
C=CCC(CNC(=O)OCc1ccccc1)O[Si](C)(C)C(C)(C)C (centres undefined) | 74.9 µM | > 100 µM | > 100 µM | > 100 µM | 70.1 µM | > 100 µM | > 100 µM | 85.8 µM | 73.7 µM | 59.1 µM | 93.2 µM
O=c1[nH]c(=O)n(C2OC(COP(=O)(O)OP(=O)(O)O)C(O)C2O)cc1F (centres undefined) | 42.5 µM | > 50 µM | > 50 µM | > 50 µM | > 50 µM | > 50 µM | > 50 µM | 28.6 µM | > 17 µM | > 50 µM | 17.2 µM
CCC1(CC)C(=O)CC[C@@]2(C)C1=CC[C@H]1[C@@H]3CC[C@H](O)[C@@]3(C)CC[C@@H]12 | > 100 µM | 41.9 µM | 62.1 µM | 63.1 µM | 54.8 µM | > 100 µM | 45 µM | 87.5 µM | 63.8 µM | 28.5 µM | > 100 µM
C/C(=N\NC(N)=O)C(CN1CCCCC1)C(c1ccccc1)c1c(O)c2ccccc2oc1=O (centres undefined) | > 100 µM | > 100 µM | > 100 µM | > 100 µM | > 94.4 µM | > 100 µM | > 100 µM | > 100 µM | > 100 µM | > 100 µM | > 100 µM
C/C(=C/CO[Si](C)(C)C(C)(C)C)C(=O)N(C)c1ccccc1I | 29.1 µM | 33.3 µM | 31.5 µM | 35.8 µM | 72.9 µM | 35.7 µM | 31.3 µM | 32.4 µM | 25.8 µM | 22.6 µM | 32.3 µM
COC(=O)C1=C(O)C(C(=O)OC)[C@@]2(O)[C@@H](C(=O)OC)C(c3ccc(OC(=O)/C(=C/c4ccc(Cl)cc4)c4ccc(Cl)cc4)cc3)C[C@@H]1[C@@H]2C(=O)OC (some centres undefined) | > 100 µM | 73.7 µM | > 100 µM | > 100 µM | > 100 µM | > 100 µM | > 100 µM | 63.9 µM | > 100 µM | > 100 µM | 24.6 µM
CC[C@]12C=CCN3CCC4(c5cc(N=Nc6ccccc6)c(OC)cc5N(C)[C@H]4[C@@](O)(C(=O)OC)[C@@H]1OC(C)=O)[C@@H]32 (some centres undefined) | 34.2 µM | 34.1 µM | 34.5 µM | 58.7 µM | 34.6 µM | 36.8 µM | 28.1 µM | 51.5 µM | 31.2 µM | 33.8 µM | 48.3 µM
COc1cc([C@@H]2c3cc4c(cc3[C@@H](NC(=O)c3ccc(N)cc3)C3COC(=O)[C@@H]32)OCO4)cc(OC)c1O (some centres undefined) | 23.7 µM | 29.7 µM | 95.8 µM | 20.8 µM | 3.78 µM | 50.8 µM | 30.4 µM | 6.91 µM | 17 µM | 19.4 µM | 3.87 µM
CCCn1c(C23CC4CC(CC(C4)C2)C3)nc2ccc(Cl)cc2c1=O | 95.4 µM | > 100 µM | > 100 µM | > 100 µM | > 100 µM | > 100 µM | > 100 µM | > 100 µM | > 100 µM | 80.2 µM | > 100 µM
Cc1nnc2cc(C(=O)O)c3ccccc3n2c1=O | > 10 µM | > 10 µM | > 10 µM | > 10 µM | > 10 µM | > 10 µM | > 10 µM | > 10 µM | > 10 µM | > 10 µM | > 10 µM
O=C(C1=C(C(=O)c2ccccc2)SC2(S1)C(C(=O)c1ccccc1)=C(C(=O)c1ccccc1)Sc1c2ssc1=O)c1ccccc1 | > 100 µM | > 100 µM | > 100 µM | > 100 µM | > 100 µM | > 100 µM | > 100 µM | 55 µM | > 100 µM | > 100 µM | 57.6 µM
